Read-outs that look alike come from different tables or passages of the source.
Legend:
[1] = test system: Aβ1-40; experiment: Measurement of Aβ1-40 in culture medium of 7W WT APP751 CHO cells by ELISA; type: cell-based, Chinese hamster; conditions: for Aβ1-40 (% of control): CHO cells that overexpress APP751, zero = below the detection limit of the assay; for activity at 5 µM: Cricetulus griseus, 5 μM test compound, CHO cells stably transfected with human APP751, culture medium, ELISA, control DMSO;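 on all read-outs here: 5 µM test compound but RI-coded compounds at 10 µM for 24 hours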
[2] = test system: Aβ1-42; experiment: Measurement of Aβ1-42 in culture medium of 7W WT APP751 CHO cells by ELISA; type: cell-based, Chinese hamster; conditions: for Aβ1-42 (% of control): CHO cells that overexpress APP751, zero = below the detection limit of the assay; for activity at 5 µM: Cricetulus griseus, 5 μM test compound, CHO cells stably transfected with human APP751, culture medium, ELISA, control DMSO;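 on Aβ1-42 (% of control): 5 µM test compound but RI-coded compounds at 10 µM for 24 hours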
[3] = Table 3, read-out: Aβ-42 (% of control)
[4] = Table 1, 0 = no detectable amount
[5] = Table 1, 0 = no detectable amount, read-out: Aβ1-42 (% of control)

SMILES | Aβ1-40 (% of control) [1] | Aβ1-42 (% of control) [2] | activity at 5 µM [1, 4] [%] | activity at 5 µM [2, 5] [%] | also measured
CCOc1cc(/C=c2\sc3n(c2=O)C(N)=C(C#N)C(c2ccc(OCC(N)=O)c(OCC)c2)C=3C#N)ccc1OCC(N)=O (centres unmarked) [ST025037, 2-[4-(5-amino-2-{[4-(carbamoylmethoxy)-3-ethoxyphenyl]methylene}-6,8-dicyano-3-oxo(4,7-dihydro-1,3-thiazolidino[3,2-a]pyridin-7-yl))-2-ethoxyphenoxy]acetamide] | 80.02 % of control | 67.1 % of control | – | – | –
CCOC(=O)C1=c2s/c(=C/c3ccccc3C(F)(F)F)c(=O)n2C(N)=C(C#N)C1c1ccccc1C(F)(F)F (centres unmarked) [ST025089, ethyl 5-amino-6-cyano-3-oxo-7-[2-(trifluoromethyl)phenyl]-2-{[2-(trifluoromethyl)phenyl]methylene}-4,7-dihydro-1,3-thiazolidino[3,2-a]pyridine-8-carboxylate] | 48.71 % of control | 33.69 % of control | – | – | –
COc1ccc(C2C(C#N)=C(N)NC(C(C#N)C#N)=C2C#N)cc1OC (centres unmarked) [ST025482, 6-amino-2-(dicyanomethyl)-4-(3,4-dimethoxyphenyl)-1,4-dihydropyridine-3,5-dicarbonitrile] | 62.83 % of control | 45.1 % of control | – | – | –
CCOC(=O)C1=C(C)N(c2nonc2NC(C)=O)C(N)=C(C#N)C1c1ccc(Cl)cc1Cl (centres unmarked) [ST026470, ethyl 1-[4-(acetylamino)(1,2,5-oxadiazol-3-yl)]-6-amino-4-(2,4-dichlorophenyl)-5-cyano-2-methyl-1,4-dihydropyridine-3-carboxylate] | 81.7 % of control | 67.48 % of control | – | – | –
O=C(N=C1CC(c2ccccc2)N(c2ccncc2)CC1[N+](=O)[O-])Nc1cccnc1 (centres unmarked) [ST026819, 2-(5-nitro-2-phenyl-1-(4-pyridyl)(4-6-hydropyridylidene))-N-(3-pyridyl)-2-azaace tamide] | – | – | – | – | activity at 5 µM ([1]; Table 3): 64.9%; activity at 5 µM [2, 3]: 57.8%
COC(=O)C1=C(C)NC2=C(C(=O)CCC2)C1c1ccc(Br)cc1 (centres unmarked) [ST028547, methyl 4-(4-bromophenyl)-2-methyl-5-oxo-1,4,6,7,8-pentahydroquinoline-3-carboxylate] | – | – | 72.1 | 45.3 | –
CCOC(=O)C1=C(C)NC2=C(C(=O)CCC2)C1c1ccc(OCc2ccccc2Cl)c(OC)c1 (centres unmarked) [ST028591, ethyl 4-{4-[(2-chlorophenyl)methoxy]-3-methoxyphenyl}-2-methyl-5-oxo-1,4,6,7,8-pentahydroquinoline-3-carboxylate] | – | – | 98.3 | 69.6 | –
COC(=O)C1=C(C)NC2=C(C(=O)CC(C)(C)C2)C1c1ccc(OCc2cccc(Cl)c2)c(OC)c1 (centres unmarked) [ST028592, methyl 4-{4-[(3-chlorophenyl)methoxy]-3-methoxyphenyl}-2,7,7-trimethyl-5-oxo-1,4,6,7,8-pentahydroquinoline-3-carboxylate] | – | – | 28.3 | 97.1 | –
COC(=O)C1=C(C)NC2=C(C(=O)CC(C)(C)C2)C1c1ccc(OCc2ccc(Cl)cc2)c(OC)c1 (centres unmarked) [ST028595, methyl 4-{4-[(4-chlorophenyl)methoxy]-3-methoxyphenyl}-2,7,7-trimethyl-5-oxo-1,4,6,7,8-pentahydroquinoline-3-carboxylate] | – | – | 34.4 | 98.9 | –
CCOC(=O)C1=C(C)NC2=C(C(=O)CCC2)C1c1ccc(OCc2ccc(Cl)cc2)c(OC)c1 (centres unmarked) [ST028598, ethyl 4-{4-[(4-chlorophenyl)methoxy]-3-methoxyphenyl}-2-methyl-5-oxo-1,4,6,7,8-pentahydroquinoline-3-carboxylate] | – | – | 27.4 | 71.6 | –
CCOC(=O)C1=C(C)NC2=C(C(=O)CCC2)C1c1ccc(OCc2ccc(C)cc2)c(OC)c1 (centres unmarked) [ST028606, ethyl 4-{3-methoxy-4-[(4-methylphenyl)methoxy]phenyl}-2-methyl-5-oxo-1,4,6,7,8-pentahydroquinoline-3-carboxylate] | – | – | 24.2 | 52 | –
COC(=O)C1=C(C)NC2=C(C(=O)CC(C)(C)C2)C1c1ccc(OCc2cccc(C(F)(F)F)c2)c(OC)c1 (centres unmarked) [ST028607, methyl 4-(3-methoxy-4-{[3-(trifluoromethyl)phenyl]methoxy}phenyl)-2,7,7-trimethyl-5-oxo-1,4,6,7,8-pentahydroquinoline-3-carboxylate] | – | – | 23.8 | 63.3 | –
COC(=O)C1=CN(Cc2ccc(F)cc2)C=C(C(=O)OC)C1c1ccc(OC)cc1OC [ST038081, methyl 4-(2,4-dimethoxyphenyl)-1-[(4-fluorophenyl)methyl]-5-(methoxycarbonyl)-1,4-dihydropyridine-3-carboxylate] | 36.22 % of control | 92.93 % of control | – | – | –
COC(=O)C1=CN(Cc2ccc3c(c2)OCO3)C=C(C(=O)OC)C1c1cccs1 [ST038112, methyl 1-(2H-benzo[3,4-d]1,3-dioxolen-5-ylmethyl)-5-(methoxycarbonyl)-4-(2-thienyl)-1,4-dihydropyridine-3-carboxylate] | 47.7 % of control | 99.52 % of control | – | – | –
COC(=O)C1=CN(Cc2ccc3c(c2)OCO3)C=C(C(=O)OC)C1c1ccc(OC)c(OC)c1 [ST038114, methyl 1-(2H-benzo[3,4-d]1,3-dioxolen-5-ylmethyl)-4-(3,4-dimethoxyphenyl)-5-(methoxycarbonyl)-1,4-dihydropyridine-3-carboxylate] | 48 % of control | 95.92 % of control | – | – | –
COC(=O)C1=CN(Cc2ccc(OC)c(OC)c2)C=C(C(=O)OC)C1c1cccs1 [ST038115, methyl 1-[(3,4-dimethoxyphenyl)methyl]-5-(methoxycarbonyl)-4-(2-thienyl)-1,4-d ihydropyridine-3-carboxylate] | 42.45 % of control | 91 % of control | – | – | –
COC(=O)C1=CN(Cc2ccc(OC)c(OC)c2)C=C(C(=O)OC)C1c1ccc(OC)c(OC)c1 [ST038162, methyl 4-(3,4-dimethoxyphenyl)-1-[(3,4-dimethoxyphenyl)methyl]-5-(methoxycarbonyl)-1,4-dihydropyridine-3-carboxylate] | 49.65 % of control | 58.62 % of control | – | – | –
COC(=O)C1=CN(C2CC2)C=C(C(=O)OC)C1c1cccc(F)c1 [ST038735, methyl 1-cyclopropyl-4-(3-fluorophenyl)-5-(methoxycarbonyl)-1,4-dihydropyridine-3-carboxylate] | 65.36 % of control | 98.52 % of control | – | – | –
COC(=O)C1=CN(C2CC2)C=C(C(=O)OC)C1c1ccc(Cl)cc1 [ST038738, methyl 4-(4-chlorophenyl)-1-cyclopropyl-5-(methoxycarbonyl)-1,4-dihydropyridine-3-carboxylate] | 94.49 % of control | 52.59 % of control | – | – | –
N#CC1=C(N)N(c2ccc(F)cc2)C2=C(C(=O)CC(c3ccccc3)C2)C1c1ccsc1 (centres unmarked) [ST040993, 2-amino-1-(4-fluorophenyl)-5-oxo-7-phenyl-4-(3-thienyl)-1,4,6,7,8-pentahydroquinoline-3-carbonitrile] | – | – | 65.7 | 46.9 | –
N#CC1=C2NC(=O)c3c(sc4c3CCCCC4)N2C2=C(C(=O)CCC2)C1c1ccc(F)cc1 (centres unmarked) [ST041668, 5-(4-fluorophenyl)-4,8-dioxo-1,2,3,5,7,9,10,11,12,13,15-undecahydrocyclohepta[1,2-b]quinolino[1′,2′-2,1]pyrimidino[5,6-d]thiophene-6-carbonitrile] | – | – | 88.7 | 27.9 | –
CC1=C(C(=O)Nc2ccccc2)C(c2cccs2)C(C#N)=C(SCC(=O)Nc2ccc(C)c(C)c2)N1 (centres unmarked) [ST041706, N-(3,4-dimethylphenyl)-2-[3-cyano-6-methyl-5-(N-phenylcarbamoyl)-4-(2-thienyl) (2-1,4-dihydropyridylthio)]acetamide] | 68.73 % of control | 50.13 % of control | – | – | –
N#CC1=C(N)N(c2sc3c(c2C#N)CCCC3)C2=C(CCC2)C1(C(F)(F)F)C(F)(F)F [ST044920, 2-[2-amino-4,4-bis(trifluoromethyl)-3-cyano-1,4,5,6,7-pentahydrocyclopenta[1,2-b]pyridinyl]-4,5,6,7-tetrahydrobenzo[b]thiophene-3-carbonitrile] | – | – | – | – | activity at 5 µM ([1]; Table 3): 76.9%; activity at 5 µM [2, 3]: 48.2%
COC(=O)C1=C(C)NC2=C(C(=O)CC(c3cccs3)C2)C1c1cc(OC)c(Br)cc1OC (centres unmarked) [ST045143, methyl 4-(4-bromo-2,5-dimethoxyphenyl)-2-methyl-5-oxo-7-(2-thienyl)-1,4,6,7,8-pentahydroquinoline-3-carboxylate] | – | – | 22.9 | 16 | –
COC(=O)C1=CN(CC2CCCO2)C=C(C(=O)OC)C1c1ccc(Cl)c(Cl)c1 (centres unmarked) [ST045237, methyl 4-(3,4-dichlorophenyl)-5-(methoxycarbonyl)-1-(oxolan-2-ylmethyl)-1,4-dihydropyridine-3-carboxylate] | 60.46 % of control | 50.77 % of control | – | – | –
